Read-outs that look alike come from different tables or passages of the source. Each block holds one compound with its values, some of them ahead of it.
Assays:
[1] = system: HepG2 cells; assay: Test Example 2: inhibition of apolipoprotein B secretion from HepG2 cells, ELISA (also used for metabolites in Test Example 8); assay type: cell-based; settings: Homo sapiens, 24 hours, apo B in supernatant by ELISA, read-out: Test Example 2 Inhibition of apo B secretion IC50
In short: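 HepG2 cells cultured 24 h, then exposed 24 h to compounds or metabolites in medium with 0.5% DMSO. Secreted apo B in supernatant quantified by sandwich ELISA (HRP, ABTS, 405 nm) against purified human apo B standard; % inhibition vs DMSO group, IC50 derived.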

[2] = system: Syrian hamsters; assay: Test Example 3: olive oil-loading test (inhibition of fat absorption, plasma TG); assay type: in vivo; settings: Mesocricetus auratus, po, plasma TG 4 hours after olive oil, read-out: Test Example 3 Inhibition of fat absorption after olive oil-loading in Hamster Inhibition rate (%); for inhibition in vivo at 10 mg/kg: 10 mg/kg p.o.; for inhibition in vivo at 3 mg/kg: 3 mg/kg p.o.
Method: Syrian hamsters (9-11 weeks of age) under non-fasted conditions were used in the test. Blood was collected previously from orbital venous plexus, and a sample was suspended in 0.5% methyl cellulose (vehicle) and the suspension was forced to be administered orally to the hamsters at a dose of 0.3, 1, 3 or 10 mg/2 mL/kg. Only vehicle in the same volume was administered to the control group. Olive oil (2 mL/kg) was forced to be administered orally 30 minutes after the administration of the sample, and blood was collected from orbital venous plexus 4 hours later. Plasma was recovered from the blood, and the amount of triglyceride (TG) in the plasma was determined by automatic analyzer (Hitachi Co.). The data was expressed in terms of ΔTG(mg/dL)=the value at 4th hr minus the value before administration. Inhibition rate (%) was calculated from the data obtained on the basis of the following equation.
Inhibition rate (%)=100×(1 minus ΔTG of sample group/ΔTG of control group).

[3] = Test Example 6: determination of the concentration in plasma (unchanged form and metabolite, orbital venous plexus and portal vein, LC/MS); assay type: in vivo; settings: hamster, oral, Syrian hamsters; for concentration at 1 h: 1 h after 30 mg/kg p.o.; for concentration at 2 h: 2 h after 30 mg/kg p.o.; for concentration at 4 h: 4 h after 30 mg/kg p.o.
Method: Determination of the Concentration in Plasma Syrian hamsters (9-15 weeks of age) under non-fasted conditions were used in the test. A sample was suspended in 0.5% methyl cellulose (vehicle), and the suspension was forced to be administered orally to the hamsters at a dose of 30 or 100 mg/2 mL/kg. After a fixed period of time, blood was partly collected from orbital venous plexus, and the hamsters were subjected to laparotomy under ether anesthesia, and then blood was collected from portal vein. The blood was immediately cooled with ice to separate plasma. A portion of the plasma was extracted with an organic solvent and the supernatant was recovered. Concentration of the sample (unchanged form) and that of the metabolite in the supernatant were determined quantitatively by high performance liquid chromatography/mass spectrometry (LC/MS) comparing with chromatogram of synthetic standard.

[4] = system: Syrian hamsters; assay: Test Example 4: liver TG release inhibition test (Triton WR 1339); assay type: in vivo; settings: Triton WR 1339, plasma TG release velocity over 2 h, fasted Syrian hamsters
Method: Liver TG Release Inhibition Test
Syrian hamsters (9 to 11 weeks of age) which were fasted for one day were used in the test. Blood was collected previously from orbital venous plexus, and a sample was forced to be administered orally to the hamsters at a dose of 30, 100 or 300 mg/2 mL/kg, and the same amount of vehicle was administered to the control group. Triton WR 1339 (2 mL/kg) was intravenously administered to the hamsters 30 minutes after the above administration. Two hours later, blood was collected from orbital venous plexus, and plasma was separated from the blood. The amount of TG in the plasma was determined by automatic analyzer (Hitachi Co.). The data was expressed in terms of TG release velocity (mg/dL/min)=(value at 2nd hour minus value before administration)/120. Inhibition rate (%) was calculated from the data obtained on the basis of the following equation.
Inhibition rate (%)=100×(1 minus TG release velocity of sample/TG release velocity of control group).

[5] = system: Syrian hamsters; assay: Test Example 3: olive oil-loading test (inhibition of fat absorption, plasma TG); assay type: in vivo; settings: Mesocricetus auratus, po; 100 mg/kg p.o.; plasma TG 4 hours after olive oil; read-out: Test Example 3 Inhibition of fat absorption after olive oil-loading in Hamster Inhibition rate (%)
[6] = plasma from peripheral blood (orbital venous plexus), read-out: Concentration in plasma, unaltered form, peripheral blood
[7] = plasma from portal vein blood, read-out: Concentration in plasma, unaltered form, blood of portal vein

SMILES: CCOC(=O)C(COC(=O)Cc1ccc(NC(=O)c2ccccc2-c2ccc(C(F)(F)F)cc2)c(C(=O)N2CCCC2)c1)(C(=O)OCC)c1ccccc1 [Example 2-22]
IC50 [1]: 0.44 nM
inhibition in vivo at 3 mg/kg [2]: 61%
Inhibition of liver TG release in Hamster, Inhibition rate(%) ([4]; 30 mg/kg p.o.): 0(30) %

SMILES: CCNC(=O)C(COC(=O)Cc1ccc(NC(=O)c2ccccc2-c2ccc(C(F)(F)F)cc2)c(CC)c1)(C(=O)NCC)c1ccccc1 [Example 1-5, {3-Ethyl-4-[(4′-trifluoromethylbiphenyl-2-carbonyl)amino]phenyl}acetic acid 2,2-bisethylcarbamoyl-2-phenylethyl ester]
IC50 [1]: 0.65 nM
inhibition in vivo at 3 mg/kg [2]: 59%

SMILES: CCCNC(=O)C(COC(=O)Cc1ccc(NC(=O)c2ccccc2-c2ccc(C(F)(F)F)cc2)cc1)(C(=O)NCCC)c1ccccc1 [Example 1-35]
IC50 [1]: 6.9 nM
inhibition in vivo at 100 mg/kg [5]: 59%
Inhibition of liver TG release in Hamster, Inhibition rate(%) ([4]; 300 mg/kg p.o.): 9(300) %

SMILES: CCNC(=O)C(COC(=O)Cc1ccc(NC(=O)c2ccccc2-c2ccc(C(F)(F)F)cc2)cc1)(C(=O)NCC)c1ccccc1 [Example 1, 4-[(4′-Trifluoromethylbiphenyl-2-carbonyl)amino]phenyl-acetic acid 2,2-bisethylcarbamoyl-2-phenylethyl ester]
IC50 [1]: 5.8 nM
inhibition in vivo at 100 mg/kg [5]: 57%
Inhibition of liver TG release in Hamster, Inhibition rate(%) ([4]; 300 mg/kg p.o.): 19(300) %

SMILES: CCOC(=O)C(COC(=O)Cc1ccc(OC(=O)c2ccccc2-c2ccc(C(F)(F)F)cc2)cc1)(C(=O)OCC)c1ccccc1 [Example 1-2, 2-Phenyl-2-{2-[4-(4′-trifluoromethylbiphenyl-2-carbonyloxy)phenyl]acetoxymethyl}malonic acid diethyl ester]
concentration at 1 h [3, 6]: < 200 nM
concentration at 2 h [3, 6]: < 200 nM
concentration at 4 h [3, 6]: < 200 nM
concentration at 1 h [3, 7]: < 200 nM
concentration at 2 h [3, 7]: < 200 nM
concentration at 4 h [3, 7]: < 200 nM
IC50 [1]: 850 nM

SMILES: CCNC(=O)C(COC(=O)Cc1ccc(NC(=O)c2ccccc2-c2ccc(C(F)(F)F)cc2)c(C(=O)NC)c1)(C(=O)NCC)c1ccccc1 [Example 2-3]
IC50 [1]: 2 nM
inhibition in vivo at 3 mg/kg [2]: 68%

SMILES: O=C(Cc1ccc(NC(=O)c2ccccc2-c2ccc(C(F)(F)F)cc2)cc1)OCC1(C(=O)NCC(F)(F)F)c2ccccc2-c2ccccc21 [Example 1-6]
IC50 [1]: 5.5 nM
inhibition in vivo at 10 mg/kg [2]: 54%
Inhibition of liver TG release in Hamster, Inhibition rate(%) ([4]; 100 mg/kg p.o.): 0(100) %

SMILES: CCNC(=O)C(COC(=O)Cc1ccc(NC(=O)c2ccccc2-c2ccc(C(F)(F)F)cc2)c(OC(C)C)c1)(C(=O)NCC)c1ccccc1 [Example 3-10]
IC50 [1]: 0.31 nM
inhibition in vivo at 3 mg/kg [2]: 85%

SMILES: CCNC(=O)C(COC(=O)Cc1ccc(NC(=O)c2ccccc2-c2ccc(C(F)(F)F)cc2)c(OC)c1)(C(=O)NCC)c1ccccc1 [Example 3-3]
IC50 [1]: 1 nM
inhibition in vivo at 10 mg/kg [2]: 78%
Inhibition of liver TG release in Hamster, Inhibition rate(%) ([4]; 100 mg/kg p.o.): 18(100) %

SMILES: CCNC(=O)C(CCOC(=O)Cc1ccc(NC(=O)c2ccccc2-c2ccc(C(F)(F)F)cc2)c(OC)c1)(C(=O)NCC)c1ccccc1 [Example 3-6]
IC50 [1]: 0.63 nM
inhibition in vivo at 3 mg/kg [2]: 52%

SMILES: CCNC(=O)C(CCOC(=O)Cc1ccc(NC(=O)c2ccccc2-c2ccc(C(F)(F)F)cc2)c(OCC)c1)(C(=O)NCC)c1ccccc1 [Example 3-8]
IC50 [1]: 0.38 nM
inhibition in vivo at 3 mg/kg [2]: 60%

SMILES: O=C(Cc1ccc(NC(=O)c2ccccc2-c2ccc(C(F)(F)F)cc2)cc1)OCC(C(=O)NCC(F)(F)F)(C(=O)NCC(F)(F)F)c1ccccc1 [Example 1-12]
concentration at 1 h [3, 6]: < 200 nM
concentration at 2 h [3, 6]: < 200 nM
concentration at 4 h [3, 6]: < 200 nM
concentration at 1 h [3, 7]: < 200 nM
concentration at 2 h [3, 7]: < 200 nM
concentration at 4 h [3, 7]: < 200 nM
IC50 [1]: 63 nM

More lines, main results first:

IC50 [1]: 1.5 nM
SMILES: CCNC(=O)C(COC(=O)Cc1ccc(NC(=O)c2ccccc2-c2ccc(C(F)(F)F)cc2)c(C(=O)N(C)C)c1)(C(=O)NCC)c1ccccc1 [Example 2, {3-Dimethylcarbamoyl-4-[(4′-trifluoromethylbiphenyl-2-carbonyl)amino]phenyl}acetic acid 2,2-bisethylcarbamoyl-2-phenylethyl ester]
inhibition in vivo at 10 mg/kg [2]: 95%

concentration at 1 h [3, 6]: < 200 nM
concentration at 2 h [3, 6]: < 200 nM
concentration at 4 h [3, 6]: < 200 nM
concentration at 1 h [3, 7]: < 200 nM
concentration at 2 h [3, 7]: < 200 nM
concentration at 4 h [3, 7]: < 200 nM
IC50 [1]: 170 nM
SMILES: COC(=O)C(COC(=O)Cc1ccc(NC(=O)c2ccccc2-c2ccc(C(F)(F)F)cc2)cc1)(C(=O)OC)c1ccccc1 [Example 1-13]

IC50 [1]: 0.56 nM
SMILES: CCNC(=O)C(CCCOC(=O)Cc1ccc(NC(=O)c2ccccc2-c2ccc(C(F)(F)F)cc2)c(C(=O)N(C)C)c1)(C(=O)NCC)c1ccccc1 [Example 2-7]
inhibition in vivo at 3 mg/kg [2]: 58%

IC50 [1]: 0.76 nM
SMILES: COC(=O)C(COC(=O)Cc1ccc(NC(=O)c2ccccc2-c2ccc(C(F)(F)F)cc2)c(C(=O)N(C)C)c1)(C(=O)OC)c1ccccc1 [Example 2-39]
inhibition in vivo at 3 mg/kg [2]: 68%
Inhibition of liver TG release in Hamster, Inhibition rate(%) ([4]; 100 mg/kg p.o.): 6(100) %

IC50 [1]: 0.29 nM
SMILES: CCNC(=O)C(CCOC(=O)Cc1ccc(NC(=O)c2ccccc2-c2ccc(C(F)(F)F)cc2)c(C(=O)N(C)C)c1)(C(=O)NCC)c1ccccc1 [Example 2-4]
inhibition in vivo at 3 mg/kg [2]: 78%

concentration at 1 h [3, 6]: < 20 nM
concentration at 2 h [3, 6]: < 20 nM
concentration at 4 h [3, 6]: < 20 nM
concentration at 1 h [3, 7]: 10 nM
concentration at 2 h [3, 7]: 30 nM
concentration at 4 h [3, 7]: 10 nM
IC50 [1]: 0.55 nM
SMILES: CCOC(=O)C(COC(=O)Cc1ccc(NC(=O)c2ccccc2-c2ccc(C(F)(F)F)cc2)c(C(=O)N(C)C)c1)(C(=O)OCC)c1ccccc1 [Example 2-5]
inhibition in vivo at 3 mg/kg [2]: 70%
Inhibition of liver TG release in Hamster, Inhibition rate(%) ([4]; 100 mg/kg p.o.): 0(100) %

IC50 [1]: 1.3 nM
SMILES: CCCNC(=O)C(COC(=O)Cc1ccc(NC(=O)c2ccccc2-c2ccc(C(F)(F)F)cc2)c(C(=O)N(C)C)c1)(C(=O)NCCC)c1ccccc1 [Example 2-2]
inhibition in vivo at 10 mg/kg [2]: 96%

Reference: US7625948B2, “Ester compound and medicinal use thereof” (Japan Tobacco Inc., priority 2002, dated 2009)
